Results published in patent US8748418B2, “1,4-oxazepines as BACE1 and/or BACE2 inhibitors” (Hoffmann-La Roche Inc., priority 2011, dated 2014).

Experiments:
BACE1 = BACE1 (Homo sapiens (Human), UniProt P56817); experiment: Cellular Aβ-lowering assay (Aβ40 ELISA in HEK293 cells expressing human APP695); format: cell-based; settings: HEK293 cells stably transfected with human APP wt (APP695), Aβ40 in supernatant after 18-20 hrs
Protocol: Cellular Aβ-Lowering Assay:
Human HEK293 cells which are stably transfected with a vector expressing a cDNA of the human APP wt gene (APP695) were used to assess the potency of the compounds in a cellular assay. The cells were seeded in 96-well microtiter plates in cell culture medium (Iscove, plus 10% (v/v) fetal bovine serum, glutamine, penicillin/streptomycin) to about 80% confluence and the compounds were added at a 10× concentration in 1/10 volume of medium without FCS containing 8% DMSO (final concentration of DMSO was kept at 0.8% v/v). After 18-20 hrs incubation at 37° C. and 5% CO2 in a humidified incubator the culture supernatant was harvested for the determination of Aβ40 concentrations. 96 well ELISA plates (e.g., Nunc MaxiSorb) were coated with monoclonal antibody which specifically recognize the C-terminal end of Aβ40 (Brockhaus et al., NeuroReport 9, 1481-1486; 1998). After blocking of non-specific binding sites with e.g. 1% BSA and washing, the culture supernatants were added in suitable dilutions together with a horseradish peroxidase-coupled Aβ detection antibody (e.g., antibody 4G8, Senetek, Maryland Heights, Mo.) and incubated for 5 to 7 hrs. Subsequently the wells of the microtiter plate were washed extensively with Tris-buffered saline containing 0.05% Tween 20 and the assay was developed with tetramethylbenzidine/H2O2 in citric acid buffer. After stopping the reaction with one volume 1NH2SO4 the reaction was measured in an ELISA reader at 450 nm wavelength. The concentrations of Aβ in the culture supernatants were calculated from a standard curve obtained with known amounts of pure Aβ peptide.

BACE2 = BACE2 (Homo sapiens (Human), UniProt Q9Y5Z0); experiment: Immunofluorescence Resonance Energy Transfer (FRET) assay for BACE2 inhibition; format: biochemical; settings: TMEM27-based peptide substrate 5 μM, pH 4.5
Protocol: Immunofluorescence Resonance Energy Transfer (FRET) Assay for BACE2 Inhibition:
BACE2 enzyme ectodomain (derived from plasmid “pET17b-T7-hu proBACE2”) was prepared as described in Ostermann et al., “Crystal Structure of Human BACE2 in Complex with a Hydroxyethylamine Transition-state Inhibitor”, Journal of Molecular Biology 2006, 355, 249-261. The pro-enzyme was stored at 4° C. at a concentration of 70 μg/ml.
The FRET assay was performed essentially as described in Grüninger-Leitch et al., Journal of Biological Chemistry (2002) 277(7) 4687-93 (“Substrate and inhibitor profile of BACE (beta-secretase) and comparison with other mammalian aspartic proteases”). In summary, a peptide is designed that is cleaved by the protease. The peptide is labelled with dabcyl at the N terminus and Lucifer Yellow at the C-terminus, such that for an intact peptide the Lucifer Yellow fluorescence is quenched by the dabcyl. When the peptide is cut by BACE2, the quenching is removed and a fluorescent signal is generated.
The assay was performed as described in Grueninger et al. 2002 at pH 4.5 using a substrate concentration of 5 μM. A FRET peptide based on the TMEM27 sequence was devised. dabcyl-[…]-LucY (SEQ ID NO: 1).
The assay readout is the initial rate of change of fluorescence intensity giving a relative measure of BACE2 activity. Small values correspond to high inhibition and larger values to low inhibition. […] IC50 values were determined using these assay values generated for a range of inhibitor concentrations and the curve fitting software XLfit (IDBS) using the Sigmoidal Dose-Response Model.

BACE2, sequence (Q9Y5Z0 63-473): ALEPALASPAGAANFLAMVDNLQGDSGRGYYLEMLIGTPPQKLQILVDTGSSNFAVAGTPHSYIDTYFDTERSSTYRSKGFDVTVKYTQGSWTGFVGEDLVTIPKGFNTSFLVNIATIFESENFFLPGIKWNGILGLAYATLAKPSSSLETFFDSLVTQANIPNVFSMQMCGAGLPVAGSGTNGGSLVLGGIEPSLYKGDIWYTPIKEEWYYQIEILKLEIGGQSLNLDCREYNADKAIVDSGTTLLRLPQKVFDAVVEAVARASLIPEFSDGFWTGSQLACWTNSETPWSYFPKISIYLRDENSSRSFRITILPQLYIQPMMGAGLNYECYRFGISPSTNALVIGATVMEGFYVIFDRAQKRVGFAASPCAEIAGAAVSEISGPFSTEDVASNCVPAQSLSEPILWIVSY
BACE1, sequence (P56817 46-501): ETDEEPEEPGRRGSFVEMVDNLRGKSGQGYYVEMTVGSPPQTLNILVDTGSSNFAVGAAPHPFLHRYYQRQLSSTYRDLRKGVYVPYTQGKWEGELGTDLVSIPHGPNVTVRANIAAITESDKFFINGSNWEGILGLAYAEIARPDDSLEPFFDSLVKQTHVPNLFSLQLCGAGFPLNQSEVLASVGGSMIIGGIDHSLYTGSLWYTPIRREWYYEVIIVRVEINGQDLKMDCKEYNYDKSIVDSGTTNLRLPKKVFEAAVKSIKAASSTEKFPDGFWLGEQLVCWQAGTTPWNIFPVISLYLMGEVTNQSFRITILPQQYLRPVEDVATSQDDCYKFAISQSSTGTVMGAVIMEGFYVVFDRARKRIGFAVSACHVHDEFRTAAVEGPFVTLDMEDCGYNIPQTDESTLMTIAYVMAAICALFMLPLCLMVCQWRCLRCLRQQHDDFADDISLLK

Row | Structure (SMILES) | IC50 (BACE1) [nM] | IC50 (BACE2) [nM]
1 | C[C@]1(c2cc(NC3CCc4cc(Cl)cnc43)ccc2F)N=C(N)COC[C@@H]1F (stereo partly drawn) [Example 1, [3-((5R,6R)-3-Amino-6-fluoro-5-methyl-2,5,6,7-tetrahydro-[1,4]oxazepin-5-yl)-4-fluoro-phenyl]-(3-chloro-6,7-dihydro-5H-[1]pyrindin-7-yl)-amine] | 70 | 24
2 | C[C@]1(c2cc(NCc3nn(C(F)F)cc3Cl)ccc2F)N=C(N)COC[C@@H]1F [Example 2, (5R,6R)-5-{5-[(4-Chloro-1-difluoromethyl-1H-pyrazol-3-ylmethyl)-amino]-2-fluoro-phenyl}-6-fluoro-5-methyl-2,5,6,7-tetrahydro-[1,4]oxazepin-3-ylamine] | 40 | 35
3 | C[C@]1(c2cc(NC3CCOC3)ccc2F)N=C(N)COC[C@@H]1F (stereo partly drawn) [Example 3, (5R,6R)-6-Fluoro-5-[2-fluoro-5-(tetrahydro-furan-3-ylamino)-phenyl]-5-methyl-2,5,6,7-tetrahydro-[1,4]oxazepin-3-ylamine] | 580 | 72
4 | C[C@]1(c2cc(NC3CCCOC3)ccc2F)N=C(N)COC[C@@H]1F (stereo partly drawn) [Example 4, (5R,6R)-6-Fluoro-5-[2-fluoro-5-(tetrahydro-pyran-3-ylamino)-phenyl]-5-methyl-2,5,6,7-tetrahydro-[1,4]oxazepin-3-ylamine] | 400 | 73
5 | C[C@]1(c2cc(NC3CCOCC3)ccc2F)N=C(N)COC[C@@H]1F [Example 5, (5R,6R)-6-Fluoro-5-[2-fluoro-5-(tetrahydro-pyran-4-ylamino)-phenyl]-5-methyl-2,5,6,7-tetrahydro-[1,4]oxazepin-3-ylamine] | 2400 | 1480
6 | C[C@]1(c2cc(NCc3nn(C(F)F)cc3Cl)ccc2F)N=C(N)COCC1(F)F [Example 6, (R)-5-{5-[(4-Chloro-1-difluoromethyl-1H-pyrazol-3-ylmethyl)-amino]-2-fluoro-phenyl}-6,6-difluoro-5-methyl-2,5,6,7-tetrahydro-[1,4]oxazepin-3-ylamine] | 30 | 11
7 | CC[C@]1(c2cc(NCc3nn(C(F)F)cc3Cl)ccc2F)N=C(N)COCC1(F)F [Example 7, (R)-5-{5-[(4-Chloro-1-difluoromethyl-1H-pyrazol-3-ylmethyl)-amino]-2-fluoro-phenyl}-5-ethyl-6,6-difluoro-2,5,6,7-tetrahydro-[1,4]oxazepin-3-ylamine] | 170 | 310
8 | C[C@]1(c2cc(N[C@H]3CCc4cc(Cl)cnc43)ccc2F)N=C(N)COCC1(F)F [Example 8, [3-((R)-3-Amino-6,6-difluoro-5-methyl-2,5,6,7-tetrahydro-[1,4]oxazepin-5-yl)-4-fluoro-phenyl]-((S)-3-chloro-6,7-dihydro-5H-[1]pyrindin-7-yl)-amine] | 90 | 30
9 | C[C@]1(c2cc(N[C@@H]3CCc4cc(Cl)cnc43)ccc2F)N=C(N)COCC1(F)F [Example 9, [3-((R)-3-Amino-6,6-difluoro-5-methyl-2,5,6,7-tetrahydro-[1,4]oxazepin-5-yl)-4-fluoro-phenyl]-((R)-3-chloro-6,7-dihydro-5H-[1]pyrindin-7-yl)-amine] | 2100 | 650
10 | C[C@]1(c2cc(Nc3ccc(C#N)cc3)ccc2F)N=C(N)COCC1(F)F [Example 10, 4-[3-((R)-3-Amino-6,6-difluoro-5-methyl-2,5,6,7-tetrahydro-[1,4]oxazepin-5-yl)-4-fluoro-phenylamino]-benzonitrile] | 700 | 910
11 | CC1(C)OCC(N)=N[C@](C)(c2cc(N[C@H]3CCc4cc(C#N)cnc43)ccc2F)C1(F)F [Example 12, (S)-7-[3-((R)-3-Amino-6,6-difluoro-5,7,7-trimethyl-2,5,6,7-tetrahydro-[1,4]oxazepin-5-yl)-4-fluoro-phenylamino]-6,7-dihydro-5H-[1]pyrindine-3-carbonitrile] | 120 | 5
12 | CC1(C)OCC(N)=N[C@](C)(c2cc(N[C@@H]3CCc4cc(C#N)cnc43)ccc2F)C1(F)F [Example 13, (R)-7-[3-((R)-3-Amino-6,6-difluoro-5,7,7-trimethyl-2,5,6,7-tetrahydro-[1,4]oxazepin-5-yl)-4-fluoro-phenylamino]-6,7-dihydro-5H-[1]pyrindine-3-carbonitrile] | 310 | 95
13 | CC1(C)OCC(N)=N[C@](C)(c2cc(NC3CCc4cc(Cl)cnc43)ccc2F)C1(F)F (stereo partly drawn) [Example 14, [3-((R)-3-Amino-6,6-difluoro-5,7,7-trimethyl-2,5,6,7-tetrahydro-[1,4]oxazepin-5-yl)-4-fluoro-phenyl]-(3-chloro-6,7-dihydro-5H-[1]pyrindin-7-yl)-amine] | 71 | 28
14 | CC1(C)OCC(N)=N[C@](C)(c2cc(NC3COc4cc(Cl)cnc43)ccc2F)C1(F)F (stereo partly drawn) [Example 15, [3-((R)-3-Amino-6,6-difluoro-5,7,7-trimethyl-2,5,6,7-tetrahydro-[1,4]oxazepin-5-yl)-4-fluoro-phenyl]-(6-chloro-2,3-dihydro-furo[3,2-b]pyridin-3-yl)-amine] | 40 | 58
15 | CC1(C)OCC(N)=N[C@](C)(c2cc(NC3CCCc4cc(C#N)cnc43)ccc2F)C1(F)F (stereo partly drawn) [Example 16, 8-[3-((R)-3-Amino-6,6-difluoro-5,7,7-trimethyl-2,5,6,7-tetrahydro-[1,4]oxazepin-5-yl)-4-fluoro-phenylamino]-5,6,7,8-tetrahydro-quinoline-3-carbonitrile] | 120 | 133
16 | CC1(C)OCC(N)=N[C@](C)(c2cc(NC3COc4cc(Cl)ccc43)ccc2F)C1(F)F (stereo partly drawn) [Example 17, (R)-5-[5-(6-Chloro-2,3-dihydro-benzofuran-3-ylamino)-2-fluoro-phenyl]-6,6-difluoro-5,7,7-trimethyl-2,5,6,7-tetrahydro-[1,4]oxazepin-3-ylamine] | 320 | 400
17 | Cn1ccc(Nc2ccc(F)c([C@@]3(C)N=C(N)COC(C)(C)C3(F)F)c2)n1 [Example 18, (R)-6,6-Difluoro-5-[2-fluoro-5-(1-methyl-1H-pyrazol-3-ylamino)-phenyl]-5,7,7-trimethyl-2,5,6,7-tetrahydro-[1,4]oxazepin-3-ylamine] | 240 | 530
18 | CC1(C)OCC(N)=N[C@](C)(c2cc(Nc3ccc(F)cc3)ccc2F)C1(F)F [Example 19, (R)-6,6-Difluoro-5-[2-fluoro-5-(4-fluoro-phenylamino)-phenyl]-5,7,7-trimethyl-2,5,6,7-tetrahydro-[1,4]oxazepin-3-ylamine] | 310 | 4160
19 | CC1(C)OCC(N)=N[C@](C)(c2cc(N[C@H]3CCc4cc(C#N)cnc43)c(F)cc2F)C1(F)F [Example 20, (S)-7-[5-((R)-3-Amino-6,6-difluoro-5,7,7-trimethyl-2,5,6,7-tetrahydro-[1,4]oxazepin-5-yl)-2,4-difluoro-phenylamino]-6,7-dihydro-5H-[1]pyrindine-3-carbonitrile] | 1900 | 170
20 | CC1(C)OCC(N)=N[C@](C)(c2cc(N[C@@H]3CCc4cc(C#N)cnc43)c(F)cc2F)C1(F)F [Example 21, (R)-7-[5-((R)-3-Amino-6,6-difluoro-5,7,7-trimethyl-2,5,6,7-tetrahydro-[1,4]oxazepin-5-yl)-2,4-difluoro-phenylamino]-6,7-dihydro-5H-[1]pyrindine-3-carbonitrile] | 14000 | 2810
21 | Cc1ccc(Nc2ccc(F)c([C@@]3(C)N=C(N)COC(C)(C)C3(F)F)c2)cn1 [Example 27, (R)-6,6-Difluoro-5-[2-fluoro-5-(6-methyl-pyridin-3-ylamino)-phenyl]-5,7,7-trimethyl-2,5,6,7-tetrahydro-[1,4]oxazepin-3-ylamine] | 5900 | –
